# In ChEMBL document CHEMBL1137459, “Synthesis of 3-O-methylviridicatin analogues with improved anti-TNF-alpha properties” (2007):
# Columns and labels:
# Format in all cases: functional
# [1] = system: PBMC; assay: Inhibition of LPS-stimulated TNFalpha secretion in human PBMC cells at 10 uM after 24 hrs by ELISA
# [2] = system: PBMC; assay: Inhibition of LPS-stimulated TNFalpha secretion in human PBMC cells at 50 uM after 24 hrs by ELISA
# [3] = system: THP-1; assay: Inhibition of LPS-stimulated TNFalpha secretion in human THP1 cells at 10 uM after 24 hrs by ELISA; conditions: THP-1, 24 h
# [4] = system: THP-1; assay: Inhibition of LPS-stimulated TNFalpha secretion in human THP1 cells at 50 uM after 24 hrs by ELISA; conditions: THP-1, 24 h
SMILES,inhibition at 10 µM [1] [%],inhibition at 50 µM [2] [%],inhibition at 10 µM [3] [%],inhibition at 50 µM [4] [%]
CSc1c(-c2ccccc2)c2cc([N+](=O)[O-])ccc2[nH]c1=O,86,94,–,–
CSc1c(-c2ccccc2)c2ccccc2[nH]c1=O,78,95,49,93
CNc1c(-c2ccccc2)c2ccccc2[nH]c1=O,36,67,50,97
CCc1c(-c2ccccc2)c2ccccc2[nH]c1=O,32,50,3,80
COc1c(-c2ccccc2)c2ccccc2[nH]c1=O,24,67,7,10
CN(C)c1c(-c2ccccc2)c2ccccc2[nH]c1=O,–,–,0,83
CN(C)C(=O)N1CCN(c2c(-c3ccccc3)c3ccccc3[nH]c2=O)CC1,–,–,21,43
Nc1c(-c2ccccc2)c2ccccc2[nH]c1=O,29,79,–,–
CN(CCO)c1c(-c2ccccc2)c2ccccc2[nH]c1=O,–,–,0,21
COCCN(CCOC)c1c(-c2ccccc2)c2ccccc2[nH]c1=O,–,–,0,59
